Results on seven compounds are retold here after patent publication US20230339896A1, “HPK1 INHIBITORS AND USES THEREOF” (QILU REGOR THERAPEUTICS INC., priority 2020, published 2023).

Values after ≈ are worked out from the molar mass of the structure shown.

A short description of data set [1]: Metabolic stability in liver microsomes, human (HLM). The format is in vitro ADME. Conditions: 1 µM compound, NADPH; for half-life at 1 µM: human, liver microsomes, pH 7.4, 0.5 mg/mL protein, read-out: Metabolic Stability T½ (min), HLM. The method, then: (§1) This assay is for determining the stability of test compound in liver microsomes. The study will be conducted in accordance with International Bioethical Standards “World Medical Association Declaration of
(§2) Human, Sprague Dawley Rat, CD-1 mouse, Beagle Dog and Cynomolgus Monkey Liver Microsomes samples purchased from BD Gentest or RILD.
(§3) 0.1 M Potassium phosphate buffer, pH 7.4: • Buffer A: 1.0 L of 0.1 M monobasic Potassium Phosphate buffer containing 1.0 mM EDTA • Buffer B: 1.0 L of 0.1 M Dibasic Potassium Phosphate buffer containing 1.0 mM EDTA • Buffer C (K-phosphate buffer): 0.1 M Potassium Phosphate buffer, 1.0 mM EDTA, pH 7.4 by titrating 700 mL of buffer B with buffer A while monitoring the pH meter
(§4) • Prepare 3× test compound or positive control solutions: 500 µM spiking solution: add 10 µL of 10 mM DMSO stock solution into 190 µL ACN. • 1.5 µM spiking solution in microsomes (0.75 mg/mL): add 1.5 µL of 500 µM spiking solution and 18.75 µL of 20 mg/mL liver microsomes into 479.75 µL of K-phosphate buffer.
(§5) Add 30 µL of 1.5 µM spiking solution containing 0.75 mg/ml microsomes solution to the wells designated for 45 min, 30 min, 15 min, 5 min and 0 min. Pre-incubate the plate at 37° C. for 5 minutes.
(§6) Add 15 µL of NADPH stock solution (6 mM) to all of the wells, and start timing. Immediately, add 135 µL of ACN containing IS to the wells designated as Time 0.
(§7) At 5 min, 15 min, 30 min and 45 min, add 135 µL of ACN containing IS to the wells, respectively.
(§8) After quenching, centrifuge the reaction mixtures at 3220 x g for 10 min.
(§9) Transfer 50 µL of the supernatant from each well into a 96-well sample plate containing 50 µL of ultra pure water (Millipore) for LC/MS analysis.
(§10) The % parent remaining at each incubation time point is calculated by comparing to the peak area ratio (compound peak area/internal standard peak area) at T0 (0 minute incubation). The ln peak area ratio is plotted against time and the gradient of the line is determined. The half-life and metabolism of compounds is calculated based upon a natural log linear regression of the relative peak areas vs time. The half-life and intrinsic clearance (Clint) in microsomes are calculated using the equations below. • In Vitro T ½ (min) = 0.693/Elimination rate of constant (k) • Clint (µL/min/mg of microsomal protein) = (0.693 / In Vitro T ½) (Incubation Volume/ mg of microsomes)
(Liver microsomes are vesicles of endoplasmic reticulum, rich in cytochrome P450 enzymes.)

Data set [2] can be described thus: Metabolic stability in liver microsomes, rat (RLM). Conditions: 1 µM compound, NADPH; for half-life at 1 µM: Sprague Dawley, rat, liver microsomes, pH 7.4, 0.5 mg/mL protein, read-out: Metabolic Stability T½ (min), RLM. Format: in vitro ADME, Sprague Dawley Rat. The protocol: as §1, §2, §3, §4, §5, §6, §7, §8, §9, §10
Data set [3] in a line: Metabolic stability in liver microsomes, mouse (MLM). The format is in vitro ADME, CD-1 mouse. Conditions: 1 µM compound, NADPH; for half-life at 1 µM: CD-1, mouse, liver microsomes, pH 7.4, 0.5 mg/mL protein, read-out: Metabolic Stability T½ (min), MLM. The method, then:
as §1, §2, §3, §4, §5, §6, §7, §8, §9, §10

Data set [4] can be described thus: Kinetic solubility assay. The format is physicochemical. Conditions: pH 7.4, aqueous buffer, kinetic from dmso stock; phosphate buffer pH7.4, 1% DMSO, 1 hour at room temperature. The protocol:
This protocol is designed to measure kinetic solubility of test articles in assay buffer. The study will be conducted in accordance with International Bioethical Standards “World Medical Association Declaration of Helsinki.
100 Phosphate Buffer, pH7.4
• 1) Prepare stock solutions for test compounds in DMSO at 10 mM concentration. Dilute the stock solutions into 100 mM phosphate buffer in triplicate in 1.5 ml Eppendorf tubes to a target concentration of 100 µM with a final DMSO concentration of 1%: • 2) 4 µL of 10 mM DMSO stock solution into 396 µL of assay buffer. • 3) Keep the sample tubes shaken (1000 rpm) for 1 hour at room temperature. • 4) Centrifuge sample tubes for 10 min at 12000 rpm (Eppendrof-5424, about 13500 g) to precipitate un-dissolved particles. • 5) Transfer the supernatants to new tubes with different dilutions (undiluted, 10-fold diluted, 100-fold diluted, or other fold diluted). • 6) Add 5 µL of working solution and diluted supernatants to 95 µL ACN (containing IS). Analyze the samples by LC-MS-MS against calibration curve.
A standard calibration curve is prepared in Methanol/H2O (1:1).

For the compound `CN1CCc2cc(F)c(Nc3ncc(Cl)c(N4C[C@](C)(CC(=O)O)c5ccccc54)n3)cc2C1` (single isomer, unassigned) [Example 5, (R)-2-[1-[5-chloro-2-[(6-fluoro-2-methyl-3,4-dihydro-1H-isoquinolin-7-yl)amino]pyrimidin-4-yl]-3-methyl-indolin-3-yl]acetic acid or (S)-2-[1-[5-chloro-2-[(6-fluoro-2-methyl-3,4-dihydro-1H-isoquinolin-7-yl)amino]pyrimidin-4-yl]-3-methyl-indolin-3-yl]acetic acid], the “Metabolic Stability T½ (min), HLM” value in data set [1] (0.5 mg/mL protein) is reported as “HLM: 68 min”. Besides, in data set [2] (0.5 mg/mL protein), the “Metabolic Stability T½ (min), RLM” value was “RLM: 23 min”. In addition, in data set [3] (0.5 mg/mL protein), the “Metabolic Stability T½ (min), MLM” value was “MLM: 86 min”.

As a reminder, the solubility (kinetic) is solubility judged after dilution from a stock solution rather than from solid. In data set [4], `COc1cc2c(cc1Nc1ncc(Cl)c(N3CC(C(=O)O)c4ccccc43)n1)CN(C)CC2` (stereo not drawn) [Compound 7, reference compound] registered a kinetic solubility at 1 h of 7.71 µM (≈ 3.59 µg/mL). The half-life at 1 µM in data set [1] was 237 min; in data set [2], 4260 min; in data set [3] it was greater than 5000 min.

For the compound `COc1cc2c(cc1Nc1ncc(Cl)c(N3CC(C)(CC(=O)O)c4ccc(F)cc43)n1)CN(C)CC2` (stereo not drawn) [Compound 10, reference compound], the kinetic solubility at 1 h in data set [4] is 56.2 µM (≈ 28.8 µg/mL). For the same compound, the half-life at 1 µM in data set [1] was found to be 51 min; in data set [2] it was 17 min; in data set [3], 46.1 min.

Take `COc1cc2c(cc1Nc1ncc(Cl)c(N3CC(C)(CC(=O)O)c4ccccc43)n1)CN(C)CC2` (stereo not drawn) [Example 1, 2-(1-(5-chloro-2-((6-methoxy-2-methyl-1,2,3,4-tetrahydroisoquinolin-7-yl)amino)pyrimidin-4-yl)-3-methylindolin-3-yl)acetic acid]: the kinetic solubility at 1 h in data set [4] amounted to 1.5 µM (≈ 0.741 µg/mL). Further, the half-life at 1 µM worked out at 54.4 min in data set [1] and 84 min in data set [3].

The compound `CN1CCc2cc(F)c(Nc3ncc(Cl)c(N4CC(C)(CC(=O)O)c5ccccc54)n3)cc2C1` (stereo not drawn) [Example 4, 2-(1-(5-chloro-2-((6-fluoro-2-methyl-1,2,3,4-tetrahydroisoquinolin-7-yl)amino)pyrimidin-4-yl)-3-methylindolin-3-yl)acetic acid] displayed a solubility (kinetic) at 1 h in data set [4] of 46.7 µM (≈ 22.5 µg/mL). Besides, the half-life at 1 µM in data set [1] came to 110 min; in data set [3], 79.4 min.

For the compound `COc1cc2c(cc1Nc1ncc(Cl)c(N3CC(C)(CC(=O)O)c4ccccc43)n1)CN(C)CC2` (single isomer, unassigned) [Example 2, (R)-2-(1-(5-chloro-2-((6-methoxy-2-methyl-1,2,3,4-tetrahydroisoquinolin-7-yl)amino)pyrimidin-4-yl)-3-methylindolin-3-yl)acetic acid or (S)-2-(1-(5-chloro-2-((6-methoxy-2-methyl-1,2,3,4-tetrahydroisoquinolin-7-yl)amino)pyrimidin-4-yl)-3-methylindolin-3-yl)acetic acid], the half-life at 1 µM in data set [1] was found to be 90.8 min; in data set [2] it was 38.4 min; in data set [3], 101 min.

`COc1cc2c(cc1Nc1ncc(Cl)c(N3CC(CC(=O)O)c4ccccc43)n1)CN(C)CC2` (stereo not drawn) [Compound 8, reference compound]: in data set [4], the kinetic solubility at 1 h was 62.1 µM (≈ 29.8 µg/mL). In addition, the results for the half-life at 1 µM in data set [1], in data set [2] and in data set [3] were 145 min, 48.2 min and 145 min, respectively.
